In patent publication US10563263B2, “Genetic polymorphisms associated with statin response and cardiovascular diseases, methods of detection and uses thereof” (CELERA CORPORATION, priority 2010, dated 2020):

Tested on: CVD (CHD or stroke)
Test: WOSCOPS: SNP by pravastatin treatment interaction, logistic regression (synergy index), CVD endpoint
Format: in vivo, human
Conditions: for OR: WOSCOPS; for WOSCOPS OR: endpoint CVD
Excerpt: CARE was a secondary prevention trial and WOSCOPS was a primary prevention trial.
The CHD endpoint was defined in the analyses herein of CARE as a composite endpoint of fatal CHD, definite non-fatal MI, or revascularization, and was defined in the analyses herein of WOSCOPS as a composite endpoint of death from CHD, nonfatal MI, or revascularization. In both the CARE and WOSCOPS analyses herein, the CVD endpoint was defined as a composite endpoint of CHD or stroke. […] Revascularization, which can include percutaneous transluminal coronary angioplasty (PTCA), stent placement, and coronary artery bypass graft (CABG), are medical interventions that indicate the presence of CHD.
Cohort and case-only study designs were used to identify SNPs associated with response to statin treatment.
For each SNP, a logistic regression model having treatment status as the dependent variable and SNP as the independent predictor variable was performed, with terms for age, sex and race included in the model as covariates. The anti-log of the regression coefficient corresponding to the SNP is an estimate of the synergy index (SI) (Davis et al., “Imputing gene-treatment interactions when the genotype distribution is unknown using case-only and putative placebo analyses-a new method for the Genetics of Hypertension Associated Treatment (GenHAT) study”, Statistics in Medicine 23: (2004), pages 2413-2427). The SI is a ratio of odds ratios: for example in the CARE and WOSCOPS studies, the SI represents the factor by which the odds-ratio of statin treatment, compared with placebo, among major homozygous individuals is multiplied by in order to obtain the odds-ratio of treatment vs. placebo among heterozygous individuals; and multiplied by a second time to obtain the odds-ratio of treatment vs. placebo in minor homozygous individuals. […] In a randomized clinical trial, genotype and treatment are independent by design.

CC[C@H](C)C(=O)O[C@H]1C[C@H](O)C=C2C=C[C@H](C)[C@H](CC[C@@H](O)C[C@@H](O)CC(=O)O)[C@H]21 [Pravastatin, pravastatin]
OR (rs1884902 allele C REC Imputed): 1.796
OR (rs1913201 allele G ADD Imputed): 0.7632
OR (rs1913201 allele G DOM Imputed): 0.5772
OR (rs1944279 allele A ADD Imputed): 1.444
OR (rs1987179 allele T DOM Imputed): 0.6667
OR (rs1990023 allele T DOM Imputed): 0.6024
OR (rs2016194 allele G DOM Imputed): 0.602
OR (rs2024789 allele C ADD Imputed): 0.7464
OR (rs2024902 allele A ADD Imputed): 2.395
OR (rs2024902 allele A DOM Imputed): 2.659
OR (rs2025107 allele A ADD Imputed): 2.387
OR (rs2025107 allele A DOM Imputed): 2.904
OR (rs2025108 allele T ADD Imputed): 2.387
OR (rs2025108 allele T DOM Imputed): 2.904
OR (rs2062448 allele T ADD Imputed): 0.4148
OR (rs2062448 allele T DOM Imputed): 0.4153
OR (rs2063591 allele C ADD Imputed): 0.7711
OR (rs2063591 allele C DOM Imputed): 0.5884
OR (rs2065604 allele C DOM Imputed): 0.4711
OR (rs2066238 allele T DOM Imputed): 0.6821
OR (rs2068051 allele G ADD Imputed): 0.6426
OR (rs2095586 allele A DOM Imputed): 1.351
OR (rs2108426 allele C DOM Imputed): 0.5994
OR (rs2110664 allele A DOM Imputed): 1.697
OR (rs2132242 allele A DOM Imputed): 0.6291
OR (rs2151644 allele T DOM Imputed): 0.4711
OR (rs2158958 allele A DOM Imputed): 0.6021
OR (rs2158961 allele G DOM Imputed): 0.6113
OR (rs2164099 allele G ADD Imputed): 1.424
OR (rs2173254 allele G REC Imputed): 0.3756
OR (rs2188079 allele C ADD Imputed): 1.5
OR (rs2190304 allele G REC Imputed): 0.628
OR (rs2190597 allele T DOM Imputed): 0.7825
OR (rs2190598 allele T DOM Imputed): 0.6021
OR (rs2190600 allele A DOM Imputed): 0.6022
OR (rs2218084 allele T REC Imputed): 4.673
OR (rs2290193, rec, Caseonly, CVD, pravastatin vs placebo): 0.35
OR (rs2626130, add, Caseonly, CVD, pravastatin vs placebo): 1.37
OR (rs4289236, add, Caseonly, CVD, pravastatin vs placebo): 1.49
OR (rs4611134, rec, Caseonly, CVD, pravastatin vs placebo): 1.56
OR (rs4643388, add, Caseonly, CVD, pravastatin vs placebo): 1.38
OR (rs6911817, add, Caseonly, CVD, pravastatin vs placebo): 5.32
OR (rs7327364, dom, Caseonly, CVD, pravastatin vs placebo): 0.64
OR (rs7497613, rec, Caseonly, CVD, pravastatin vs placebo): 0.43
OR (rs7767024, add, Caseonly, CVD, pravastatin vs placebo): 1.69
OR (rs8051893, dom, Caseonly, CVD, pravastatin vs placebo): 0.63
OR (rs9658127, add, Caseonly, CVD, pravastatin vs placebo): 5.32
OR (rs10088524, dom, Caseonly, CVD, pravastatin vs placebo): 1.80
OR (rs11925875, dom, Caseonly, CVD, pravastatin vs placebo): 0.57
OR (rs17076972 allele C REC Imputed): 1.85
OR (rs17189710 allele T ADD Imputed): 1.429
OR (rs17196143 allele A ADD Imputed): 1.543
OR (rs17353809 allele G ADD Imputed): 1.616
OR (rs17446418 allele G DOM Imputed): 0.6878
OR (rs17530747 allele T DOM Imputed): 0.6878
OR (rs17546598, dom, Caseonly, CVD, pravastatin vs placebo): 2.07
OR (rs17604285 allele C ADD Imputed): 0.4148
OR (rs17604285 allele C DOM Imputed): 0.4153
OR (rs17662322 allele T DOM Imputed): 0.6835
OR (rs17769826 allele T ADD Imputed): 1.616
OR (rs17821641 allele T ADD Imputed): 1.571
WOSCOPS OR (rs151806, source cohort, model dom): 0.67
WOSCOPS OR (rs205279, source Caseonly, model add): 1.60
WOSCOPS OR (rs312929, source cohort, model add): 0.79
WOSCOPS OR (rs316720, source cohort, model add): 0.78
WOSCOPS OR (rs354342, source Caseonly, model add): 0.62
WOSCOPS OR (rs610118, source Caseonly, model dom): 0.62
WOSCOPS OR (rs624460, source cohort, model add): 0.74
WOSCOPS OR (rs669684, source cohort, model add): 0.77
WOSCOPS OR (rs945020, source cohort, model dom): 0.72
WOSCOPS OR (rs1035618, source Caseonly, model add): 1.48
WOSCOPS OR (rs1051344, source cohort, model dom): 0.64
WOSCOPS OR (rs1167245, source Caseonly, model dom): 0.51
WOSCOPS OR (rs1349282, source cohort, model dom): 0.55
WOSCOPS OR (rs1861326, source Caseonly, model dom): 0.67
WOSCOPS OR (rs2023650, source Caseonly, model add): 0.62
WOSCOPS OR (rs2145540, source Caseonly, model dom): 0.70
WOSCOPS OR (rs2157673, source Caseonly, model add): 1.56
WOSCOPS OR (rs2231496, source Caseonly, model add): 0.67
WOSCOPS OR (rs2268650, source Caseonly, model dom): 0.71
WOSCOPS OR (rs2376764, source Caseonly, model rec): 0.48
WOSCOPS OR (rs2492367, source cohort, model add): 0.68
WOSCOPS OR (rs2495295, source Caseonly, model dom): 0.66
WOSCOPS OR (rs2534752, source cohort, model dom): 1.74
WOSCOPS OR (rs2695026, source Caseonly, model add): 0.61
WOSCOPS OR (rs2793086, source Caseonly, model add): 0.72
WOSCOPS OR (rs2843171, source Caseonly, model dom): 0.61
WOSCOPS OR (rs3213616, source cohort, model add): 0.62
WOSCOPS OR (rs3798544, source Caseonly, model dom): 1.78
WOSCOPS OR (rs4243071, source Caseonly, model rec): 0.41
WOSCOPS OR (rs4626316, source cohort, model dom): 0.38
WOSCOPS OR (rs4866354, source Caseonly, model dom): 0.31
WOSCOPS OR (rs4869033, source Caseonly, model rec): 0.47
WOSCOPS OR (rs4986146, source cohort, model add): 0.66
WOSCOPS OR (rs4993917, source Caseonly, model dom): 0.67
WOSCOPS OR (rs5017584, source Caseonly, model rec): 1.98
WOSCOPS OR (rs5021480, source Caseonly, model rec): 1.87
WOSCOPS OR (rs7179134, source cohort, model rec): 3.50
WOSCOPS OR (rs7612715, source cohort, model add): 0.55
WOSCOPS OR (rs7671659, source cohort, model dom): 1.43
WOSCOPS OR (rs9292827, source Caseonly, model dom): 0.27
WOSCOPS OR (rs9375683, source cohort, model dom): 1.31
WOSCOPS OR (rs9487284, source cohort, model dom): 0.70
WOSCOPS OR (rs9896077, source cohort, model dom): 0.71
WOSCOPS OR (rs10088505, source Caseonly, model dom): 1.78
WOSCOPS OR (rs10444402, source Caseonly, model add): 0.65
WOSCOPS OR (rs10494924, source Caseonly, model dom): 0.68
WOSCOPS OR (rs10517923, source Caseonly, model rec): 1.60
WOSCOPS OR (rs10849442, source Caseonly, model rec): 0.59
WOSCOPS OR (rs10889215, source cohort, model add): 1.95
WOSCOPS OR (rs11076320, source Caseonly, model dom): 0.68
WOSCOPS OR (rs11610993, source Caseonly, model dom): 0.49
WOSCOPS OR (rs12155847, source Caseonly, model dom): 1.61
WOSCOPS OR (rs17347854, source Caseonly, model dom): 0.62
WOSCOPS OR (rs17740227, source Caseonly, model dom): 1.53
WOSCOPS OR (rs33910446, source Caseonly, model rec): 2.23
WOSCOPS OR (rs72746987, source Caseonly, model dom): 0.34
